This test deals with C. tyrobutyricum adapted culture from the FBB. The class given is cell-based, Clostridium tyrobutyricum. The settings on record: butyrate concentration increased from nil to 30 g/L.

The structures appear in SMILES notation.

Regarding `CCCC(=O)O` [butyric acid], the growth ability retained entry is given as “more than 50%”.

For the origin of these results see patent US20110151529A1, “METHODS AND PROCESSES FOR PRODUCING ORGANIC ACIDS” (THE OHIO STATE UNIVERSITY, priority 2008, published 2011).
